Source: BindingDB's records for patent WO2022109580 (JANSSEN PHARMACEUTICA NV, 2022)

biological target: T1, Non-receptor tyrosine-protein kinase TYK2 [556-871] (Homo sapiens, UniProt P29597); assay: Probe Displacement Assay
T1 construct: 556-871
Procedure: The probe displacement assay is conducted as follows: In a 384-well plate, test compound along with recombinantly expressed His-tagged protein corresponding to amino acids 556-871 of human TYK2 (sequence shown below) at 5 nM, 33 nM probe (BB, preparation described below) and 0.33 mg/mL Yttrium oxide (YOx) His-capture SPA beads (PerkinElmer, RPNQ0276) in IX PBS containing 10 mM MgCl2, 0.1 mg/mL BSA, 0.1 mM TCEP, 0.005% Tween-20, and 1% DMSO (final concentration) were incubated for 10 hours at room temperature. The amount of radiolabeled probe bound to TYK2 was then quantified using a ViewLux Microplate Imager, and the fraction bound by the test compound calculated by comparison to wells containing scale references for 0% and 100% probe displacement. The IC50 value is defined as the concentration of test compound required to inhibit radiolabeled probe binding by 50%.

T1 sequence (P29597 556-871): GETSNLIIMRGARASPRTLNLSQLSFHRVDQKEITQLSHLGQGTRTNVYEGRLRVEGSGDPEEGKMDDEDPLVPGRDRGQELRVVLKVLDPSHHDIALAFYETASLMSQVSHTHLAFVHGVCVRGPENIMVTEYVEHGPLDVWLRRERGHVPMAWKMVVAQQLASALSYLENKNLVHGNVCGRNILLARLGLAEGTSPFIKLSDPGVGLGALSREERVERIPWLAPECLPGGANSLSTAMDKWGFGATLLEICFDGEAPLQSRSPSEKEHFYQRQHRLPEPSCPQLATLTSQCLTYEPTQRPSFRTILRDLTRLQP

SMILES	IC50
CO[C@]1(c2cc(OCC3COC3)cc(-n3cc(C)c4cnc(NC(N)=O)cc43)n2)CCOC1 [WO2022109580, Example 20]	11 nM
COCCOc1cc(-n2nc(C)c3cnc(NC(N)=O)cc32)nc([C@]2(OC)CCOC2)c1 [WO2022109580, Example 9]	2 nM
CO[C@@]1(c2cc(C)cc(N3C=C(c4cnn(C)c4)N4C=NC(NC(N)=O)=CC43)n2)CCOC1 (stereo partly specified) [WO2022109580, Example 23]	5 nM
CO[C@]1(c2cc(C)cc(-n3cc(C)c4cnc(NC(N)=O)cc43)n2)CCOC1 [WO2022109580, Example 18]	8 nM
CO[C@@]1(c2cc(C)cc(-n3nc(C)c4cnc(NC(N)=O)cc43)n2)CCOC1 [WO2022109580, Example 5]	3 nM
CO[C@@]1(c2cc(OCC3COC3)cc(-n3cc(C)c4cnc(NC(N)=O)cc43)n2)CCOC1 [WO2022109580, Example 19]	2 nM
CO[C@]1(c2cc(C)cc(-n3nc(-c4cnoc4)c4cnc(NC(N)=O)cc43)n2)CCOC1 [WO2022109580, Example 4]	2 nM
CO[C@@]1(c2cc(OC[C@@H](C)O)cc(-n3nc(C)c4cnc(NC(N)=O)cc43)n2)CCOC1 [WO2022109580, Example 11]	2 nM
CO[C@@]1(c2cc(C)cc(-n3cc(C)c4cnc(NC(N)=O)cc43)n2)CCOC1 [WO2022109580, Example 17]	4 nM
CO[C@@]1(c2cc(OCC3COC3)cc(-n3nc(C)c4cnc(NC(N)=O)cc43)n2)CCOC1 [WO2022109580, Example 13]	2 nM
CO[C@]1(c2cc(OCC3CS(=O)(=O)C3)cc(-n3cc(C)c4cnc(NC(N)=O)cc43)n2)CCOC1 [WO2022109580, Example 22]	14 nM
CO[C@]1(c2cc(OC[C@@H](C)O)cc(-n3nc(C)c4cnc(NC(N)=O)cc43)n2)CCOC1 [WO2022109580, Example 12]	6 nM
CO[C@]1(c2cc(OCC3CS(=O)(=O)C3)cc(-n3nc(C)c4cnc(NC(N)=O)cc43)n2)CCOC1 [WO2022109580, Example 16]	7 nM
CO[C@]1(c2cc(C)cc(-n3nc(C)c4cnc(NC(N)=O)cc43)n2)CCOC1 [WO2022109580, Example 6]	8 nM
CO[C@]1(c2cc(C)cc(-n3nc(-c4cnn(C)c4)c4cnc(NC(N)=O)cc43)n2)CCOC1 [WO2022109580, Example 2]	4 nM
CO[C@]1(c2cc(C)cc(-c3cc(C)n4cnc(NC(N)=O)cc34)n2)CCOC1 [WO2022109580, Example 25]	2 nM
CO[C@]1(c2cc(C)cc(-c3cc(-c4cnn(C)c4)n4cnc(NC(N)=O)cc34)n2)CCOC1 [WO2022109580, Example 24]	42 nM
CO[C@@]1(c2cc(C)cc(-n3nc(-c4cnoc4)c4cnc(NC(N)=O)cc43)n2)CCOC1 [WO2022109580, Example 3]	1 nM
CO[C@]1(c2cc(OCC3COC3)cc(-n3nc(C)c4cnc(NC(N)=O)cc43)n2)CCOC1 [WO2022109580, Example 14]	4 nM
CO[C@@]1(c2cc(C)cc(-n3nc(-c4cnn(C)c4)c4cnc(NC(N)=O)cc43)n2)CCOC1 [WO2022109580, Example 1]	2 nM
COCCOc1cc(-n2nc(C)c3cnc(NC(N)=O)cc32)nc([C@@]2(OC)CCOC2)c1 [WO2022109580, Example 10]	6 nM
